Patent US20260365670A1, “EGFR INHIBITORS AND USES THEREOF” (DIZAL (JIANGSU) PHARMACEUTICAL CO., LTD., priority 2022, published 2026)
Like-named read-outs stand apart in the source and are kept apart here.

Experiments:
[1] = target: T1, EGFR wild type (Homo sapiens, UniProt P00533); experiment: Inhibition of EGFR wild type biochemical enzymatic activity (HTRF); settings: EGFR wild type, 1 mM ATP, 1 h at room temperature, read-out: IC50 @WT
T1 construct: purchased Carna Bio
Method in brief: (§1)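 HTRF kinase assay: each EGFR enzyme phosphorylated 1 μM biotinylated TK substrate with 1 mM ATP in buffer containing 5 mM MgCl2, 1 mM MnCl2, 0.01% CHAPS, 1 mM DTT, 0.5% DMSO. After 1 h at room temperature, EDTA detection mix stopped the reaction. IC50 came from a four-parameter logistic fit of the 665/615 nm ratio.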

[2] = target: T2, EGFR L858R (Homo sapiens, UniProt P00533, L858R); experiment: Inhibition of EGFR L858R biochemical enzymatic activity (HTRF); settings: 1 mM ATP, 1 h at room temperature, read-out: IC50 @L858R
T2 construct: purchased Carna Bio
Method in brief: as §1

[3] = target: T3, EGFR L858R/T790M (Homo sapiens, UniProt P00533, L858R/T790M); experiment: Inhibition of EGFR L858R/T790M biochemical enzymatic activity (HTRF); settings: EGFR L858R/T790M, 1 mM ATP, 1 h at room temperature, read-out: IC50 @L858R-T790M
T3 construct: purchased Carna Bio
Method in brief: as §1

[4] = target: T4, EGFR Exon19Del (Homo sapiens, UniProt P00533, DEL746-750); experiment: Inhibition of EGFR Exon19Del biochemical enzymatic activity (HTRF); settings: EGFR Exon19Del, 1 mM ATP, 1 h at room temperature, read-out: IC50 @Del19
T4 construct: purchased Carna Bio
T4 sequence (P00533 with tags, fused parts or gaps DEL746-750 limits assumed): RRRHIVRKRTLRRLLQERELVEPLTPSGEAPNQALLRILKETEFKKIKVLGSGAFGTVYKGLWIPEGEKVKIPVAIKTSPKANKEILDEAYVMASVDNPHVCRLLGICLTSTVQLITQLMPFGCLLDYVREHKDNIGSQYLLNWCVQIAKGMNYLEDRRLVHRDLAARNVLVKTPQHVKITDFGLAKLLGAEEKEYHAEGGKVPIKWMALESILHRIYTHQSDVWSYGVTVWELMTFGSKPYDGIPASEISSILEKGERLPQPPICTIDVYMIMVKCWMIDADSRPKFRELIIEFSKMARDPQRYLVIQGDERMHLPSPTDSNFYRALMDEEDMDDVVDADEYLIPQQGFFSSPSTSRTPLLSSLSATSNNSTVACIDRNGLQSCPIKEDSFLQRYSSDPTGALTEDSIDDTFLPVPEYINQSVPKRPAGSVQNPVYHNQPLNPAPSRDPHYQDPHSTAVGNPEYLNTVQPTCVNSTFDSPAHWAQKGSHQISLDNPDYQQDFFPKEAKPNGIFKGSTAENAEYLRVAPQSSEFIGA
Method in brief: as §1

[5] = target: T5, EGFR Exon19Del/T790M (Homo sapiens, UniProt P00533, DEL746-750/T790M); experiment: Inhibition of EGFR Exon19Del/T790M biochemical enzymatic activity (HTRF); settings: EGFR Exon19Del/T790M, 1 mM ATP, 1 h at room temperature, read-out: IC50 @Del19-T790M
T5 construct: purchased Carna Bio
T5 sequence (P00533 with tags, fused parts or gaps DEL746-750/T790M limits assumed): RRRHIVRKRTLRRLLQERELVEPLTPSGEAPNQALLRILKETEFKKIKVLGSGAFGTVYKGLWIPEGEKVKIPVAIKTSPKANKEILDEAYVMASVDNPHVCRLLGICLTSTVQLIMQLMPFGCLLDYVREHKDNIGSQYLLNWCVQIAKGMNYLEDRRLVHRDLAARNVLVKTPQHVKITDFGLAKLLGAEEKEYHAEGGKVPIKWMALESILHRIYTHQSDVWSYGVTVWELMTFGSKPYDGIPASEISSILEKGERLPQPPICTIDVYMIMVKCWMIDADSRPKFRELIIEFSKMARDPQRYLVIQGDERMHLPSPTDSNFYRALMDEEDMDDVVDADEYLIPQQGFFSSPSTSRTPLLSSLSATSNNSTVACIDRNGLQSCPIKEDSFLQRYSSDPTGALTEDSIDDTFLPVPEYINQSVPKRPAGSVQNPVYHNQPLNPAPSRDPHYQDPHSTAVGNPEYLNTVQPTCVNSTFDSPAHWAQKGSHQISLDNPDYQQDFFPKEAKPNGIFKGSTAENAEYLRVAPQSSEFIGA
Method in brief: as §1

[6] = target: T6, EGFR[T790M/C797S/L858R] (Homo sapiens, UniProt P00533, C797S/L858R/T790M); experiment: Inhibition of EGFR[T790M/C797S/L858R] biochemical enzymatic activity (HTRF); settings: EGFR[T790M/C797S/L858R], 1 mM ATP, 1 h at room temperature, read-out: IC50 @T790M- C797S - L858R
T6 construct: purchased Carna Bio
T6 sequence (P00533 25-1210 T790M/C797S/L858R): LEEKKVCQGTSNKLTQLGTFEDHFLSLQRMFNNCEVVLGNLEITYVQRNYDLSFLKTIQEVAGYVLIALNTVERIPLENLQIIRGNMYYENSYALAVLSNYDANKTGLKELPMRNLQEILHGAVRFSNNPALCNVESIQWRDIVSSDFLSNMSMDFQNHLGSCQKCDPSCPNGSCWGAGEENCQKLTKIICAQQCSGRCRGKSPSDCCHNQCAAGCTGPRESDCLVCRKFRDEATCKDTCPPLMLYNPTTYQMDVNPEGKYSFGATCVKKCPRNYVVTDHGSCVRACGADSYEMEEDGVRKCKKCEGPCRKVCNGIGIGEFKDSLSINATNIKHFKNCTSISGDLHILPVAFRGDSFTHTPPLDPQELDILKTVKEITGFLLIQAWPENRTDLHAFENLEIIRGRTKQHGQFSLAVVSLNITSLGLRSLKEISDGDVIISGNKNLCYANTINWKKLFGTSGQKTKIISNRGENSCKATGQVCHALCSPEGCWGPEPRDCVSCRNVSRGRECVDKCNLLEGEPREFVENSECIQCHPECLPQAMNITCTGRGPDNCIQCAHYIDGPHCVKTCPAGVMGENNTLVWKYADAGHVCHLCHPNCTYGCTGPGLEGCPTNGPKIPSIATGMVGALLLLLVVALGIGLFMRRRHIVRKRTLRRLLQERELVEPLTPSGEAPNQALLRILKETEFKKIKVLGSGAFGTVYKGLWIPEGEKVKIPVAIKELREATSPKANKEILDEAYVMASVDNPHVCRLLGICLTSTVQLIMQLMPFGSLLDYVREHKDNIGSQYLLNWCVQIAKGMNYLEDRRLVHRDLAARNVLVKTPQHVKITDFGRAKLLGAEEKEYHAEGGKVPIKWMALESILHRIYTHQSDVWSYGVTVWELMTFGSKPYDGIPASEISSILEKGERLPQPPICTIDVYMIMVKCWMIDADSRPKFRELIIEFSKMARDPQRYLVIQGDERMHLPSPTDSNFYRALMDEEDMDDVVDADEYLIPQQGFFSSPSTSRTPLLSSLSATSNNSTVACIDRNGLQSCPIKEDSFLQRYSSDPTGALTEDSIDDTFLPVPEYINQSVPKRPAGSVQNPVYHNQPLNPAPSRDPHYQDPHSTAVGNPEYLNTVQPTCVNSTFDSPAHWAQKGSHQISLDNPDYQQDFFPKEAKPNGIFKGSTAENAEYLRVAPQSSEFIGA
Method in brief: as §1

[7] = target: T7, EGFR[T790M/C797S/d746-750] (Homo sapiens, UniProt P00533, C797S/DEL746-750/T790M); experiment: Inhibition of EGFR[T790M/C797S/d746-750] biochemical enzymatic activity (HTRF); settings: EGFR[T790M/C797S/d746-750], 1 mM ATP, 1 h at room temperature, read-out: IC50 @T790M - C797S - Del19
T7 construct: purchased Carna Bio
T7 sequence (P00533 with tags, fused parts or gaps DEL746-750/T790M/C797S limits assumed): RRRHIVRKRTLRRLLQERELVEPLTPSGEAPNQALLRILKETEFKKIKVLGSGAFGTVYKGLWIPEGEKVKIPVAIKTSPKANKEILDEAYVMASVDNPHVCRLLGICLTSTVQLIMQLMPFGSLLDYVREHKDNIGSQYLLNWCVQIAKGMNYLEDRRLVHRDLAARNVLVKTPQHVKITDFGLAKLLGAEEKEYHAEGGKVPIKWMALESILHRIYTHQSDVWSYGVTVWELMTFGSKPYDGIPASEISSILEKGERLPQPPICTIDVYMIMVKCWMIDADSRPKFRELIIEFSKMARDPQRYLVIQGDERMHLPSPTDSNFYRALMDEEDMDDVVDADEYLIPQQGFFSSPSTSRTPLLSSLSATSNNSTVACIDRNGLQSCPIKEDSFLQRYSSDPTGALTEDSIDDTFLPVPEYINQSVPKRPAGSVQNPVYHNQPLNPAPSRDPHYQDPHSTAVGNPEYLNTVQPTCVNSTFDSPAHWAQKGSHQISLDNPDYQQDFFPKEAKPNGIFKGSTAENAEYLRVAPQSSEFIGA
Method in brief: as §1

[8] = target: T8, EGFR (d746-750 C797S) (Homo sapiens, UniProt P00533, C797S/DEL746-750); experiment: Inhibition of EGFR (d746-750 C797S) biochemical enzymatic activity (HTRF); settings: EGFR (d746-750 C797S), 1 mM ATP, 1 h at room temperature, read-out: IC50 @Del19-C797S
T8 construct: purchased signalchem
T8 sequence (P00533 with tags, fused parts or gaps DEL746-750/C797S limits assumed): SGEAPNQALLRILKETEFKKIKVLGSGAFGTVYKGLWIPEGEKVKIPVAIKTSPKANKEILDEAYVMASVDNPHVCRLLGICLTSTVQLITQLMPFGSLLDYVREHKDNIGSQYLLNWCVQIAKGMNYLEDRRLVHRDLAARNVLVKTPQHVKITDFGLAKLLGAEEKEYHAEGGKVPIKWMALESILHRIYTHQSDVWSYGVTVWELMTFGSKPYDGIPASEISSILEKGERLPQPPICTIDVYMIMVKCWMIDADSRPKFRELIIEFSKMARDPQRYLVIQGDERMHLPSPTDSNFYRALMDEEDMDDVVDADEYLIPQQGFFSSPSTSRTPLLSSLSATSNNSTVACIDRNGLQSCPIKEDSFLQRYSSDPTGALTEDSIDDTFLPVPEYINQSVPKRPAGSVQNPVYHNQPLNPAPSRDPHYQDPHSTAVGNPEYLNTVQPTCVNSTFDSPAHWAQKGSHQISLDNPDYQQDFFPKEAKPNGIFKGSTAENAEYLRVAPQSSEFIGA
Method in brief: as §1

[9] = target: T9, EGFR (C797S L858R) (Homo sapiens, UniProt P00533, C797S/L858R); experiment: Inhibition of EGFR (C797S L858R) biochemical enzymatic activity (HTRF); settings: EGFR (C797S L858R), 1 mM ATP, 1 h at room temperature, read-out: IC50 @L858-C797S
T9 construct: purchased signalchem
Method in brief: as §1

[10] = test system: Ba/F3 cells expressing EGFR mutations; experiment: Cell proliferation assay, Ba/F3 cells expressing EGFR mutations (CellTiter-Glo, 72 hours); type: cell-based
Method in brief: (§2)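 Seed Ba/F3 at 5000 cells/well and PC-9 at 500 cells/well (10% FBS RPMI1640); incubate overnight; add compound dilution series; read a G0 plate; incubate; read G3; GI50 from best-fit curve.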

[11] = test system: PC-9; experiment: Cell proliferation assay, PC-9 cells (CellTiter-Glo, 72 hours); type: cell-based; settings: PC9 cells, read-out: GI50 PC9
Method in brief: as §2

[12] = test system: A-431; experiment: Cell proliferation assay, A-431 cells (GI50, Table 6); type: cell-based
[13] = BaF3 cells, EGFR DEL19 - C797S, read-out: GI50 DEL19 - C797S/BaF3
[14] = BaF3 cells, EGFR DEL19 - T790-C797S, read-out: GI50 DEL19 - T790-C797S/BaF3
[15] = BaF3 cells, EGFR L858R - C797S, read-out: GI50 L858R - C797S/BaF3
[16] = BaF3 cells, EGFR L858R - T790-C797S, read-out: GI50 L858R - T790-C797S/BaF3
[17] = BaF3 cells, EGFR L858R - T790M, read-out: GI50 L858R - T790M/BaF3
[18] = BaF3 cells, EGFR L858R, read-out: GI50 L858R/BaF3
[19] = EGFR DEL19 - T790M, read-out: GI50 DEL19 - T790M
[20] = Mus musculus, BaF3, 72 h, BaF3 cells, EGFR DEL19 - C797S, read-out: GI50 DEL19 - C797S/BaF3
[21] = Mus musculus, BaF3, 72 h, BaF3 cells, EGFR DEL19 - T790-C797S, read-out: GI50 DEL19 - T790-C797S/BaF3
[22] = Mus musculus, BaF3, 72 h, BaF3 cells, EGFR L858R - C797S, read-out: GI50 L858R - C797S/BaF3
[23] = Mus musculus, BaF3, 72 h, BaF3 cells, EGFR L858R - T790-C797S, read-out: GI50 L858R - T790-C797S/BaF3
[24] = Mus musculus, BaF3, 72 h, BaF3 cells, EGFR L858R - T790M, read-out: GI50 L858R - T790M/BaF3
[25] = Mus musculus, BaF3, 72 h, BaF3 cells, EGFR L858R, read-out: GI50 L858R/BaF3
[26] = Mus musculus, BaF3, 72 h, EGFR DEL19 - T790M, read-out: GI50 DEL19 - T790M
[27] = Homo sapiens, A-431, A-431 cells

T1 sequence (P00533 25-1210): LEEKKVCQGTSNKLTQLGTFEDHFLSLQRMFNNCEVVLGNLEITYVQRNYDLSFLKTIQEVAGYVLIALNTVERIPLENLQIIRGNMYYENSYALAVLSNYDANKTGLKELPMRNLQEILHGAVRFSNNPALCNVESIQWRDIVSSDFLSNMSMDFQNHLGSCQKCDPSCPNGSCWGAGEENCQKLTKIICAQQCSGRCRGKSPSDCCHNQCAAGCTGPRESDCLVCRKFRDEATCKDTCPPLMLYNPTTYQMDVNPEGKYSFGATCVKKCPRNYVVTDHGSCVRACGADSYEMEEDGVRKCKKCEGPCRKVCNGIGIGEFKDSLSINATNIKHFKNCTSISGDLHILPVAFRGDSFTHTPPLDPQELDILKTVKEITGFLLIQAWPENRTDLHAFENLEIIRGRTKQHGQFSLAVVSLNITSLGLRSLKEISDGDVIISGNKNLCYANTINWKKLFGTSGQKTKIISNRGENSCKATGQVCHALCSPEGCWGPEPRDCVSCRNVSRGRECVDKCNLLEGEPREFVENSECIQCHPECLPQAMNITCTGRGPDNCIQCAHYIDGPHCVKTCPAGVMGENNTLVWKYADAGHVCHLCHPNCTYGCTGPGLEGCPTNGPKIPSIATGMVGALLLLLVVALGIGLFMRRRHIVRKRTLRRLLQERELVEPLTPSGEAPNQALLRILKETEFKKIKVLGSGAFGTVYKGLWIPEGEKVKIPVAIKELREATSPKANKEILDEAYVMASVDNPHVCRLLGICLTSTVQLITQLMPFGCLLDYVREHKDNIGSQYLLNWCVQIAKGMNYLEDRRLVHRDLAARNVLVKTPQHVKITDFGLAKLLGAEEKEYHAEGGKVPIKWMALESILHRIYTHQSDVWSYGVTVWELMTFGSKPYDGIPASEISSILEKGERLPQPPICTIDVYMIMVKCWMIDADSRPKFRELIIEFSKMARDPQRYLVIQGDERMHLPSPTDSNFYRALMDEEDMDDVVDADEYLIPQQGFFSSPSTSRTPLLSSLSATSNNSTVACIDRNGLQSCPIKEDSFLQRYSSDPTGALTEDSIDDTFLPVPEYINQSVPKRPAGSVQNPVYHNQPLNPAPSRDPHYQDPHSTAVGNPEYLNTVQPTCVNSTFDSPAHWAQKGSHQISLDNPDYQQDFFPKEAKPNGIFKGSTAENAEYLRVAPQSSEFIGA

Structure (SMILES) | IC50 [1] [nM] | IC50 [2] [nM] | IC50 [3] [nM] | IC50 [4] [nM] | IC50 [5] [nM] | IC50 [6] [nM] | IC50 [7] [nM] | IC50 [8] [nM] | IC50 [9] [nM] | GI50 [10, 13] [nM] | GI50 [10, 14] [nM] | GI50 [10, 20] [nM] | GI50 [10, 21] [nM] | GI50 [10, 22] [nM] | GI50 [10, 23] [nM] | GI50 [10, 24] [nM] | GI50 [10, 25] [nM] | GI50 [10, 26] [nM] | GI50 ([11]; Homo sapiens, PC-9, 72 h) [nM] | GI50 [12, 27] [nM] | also measured
Cc1cc2cc(n1)-c1cnn(C)c1OCCN1CC3CCC(C3)(C1)n1c(nc3ccc(N4CCOCC4)cc31)NC2=O (single isomer, unassigned) [Example B10A, 15,21-Dimethyl-5-(morpholin-4-yl)-23-oxa-2,9,11,16,20,21,26-heptaazaheptacyclo[24.4.1.1^{1,28}.1^{13,17}.0^{2,10}.0^{3,8}.0^{18,22}]tritriaconta-3,5,7,9,13,15,17(33),18(22),19-nonaen-12-one] | 3370 | 212 | 2.6 | 4.6 | 2.8 | 2.6 | 2.2 | 2.3 | 59 | 0.79 | 0.84 | – | – | – | – | – | – | – | – | – | GI50 [10, 15]: 18 nM; GI50 [10, 16]: 0.91 nM; GI50 [10, 17]: 2.1 nM; GI50 [10, 18]: 24 nM; GI50 [10, 19]: 0.89 nM; GI50 [11]: 41 nM; GI50 ([12]; A-431 cells): 1730 nM
Cc1cc2cc(n1)-c1cnn(C)c1OCCC[C@@H](C)Cn1c(nc3ccc4c(c31)CCN(CCN(C)C)C4)NC2=O [Example B12, (11R)-18-[2-(dimethylamino)ethyl]-5,11,30-trimethyl-7-oxa-4,5,13,18,24,26,31-heptaazahexacyclo[26.3.1.0^{2,6}.0^{13,25}.0^{14,23}.0^{15,20}]dotriaconta-1(31),2(6),3,14,20,22,24,28(32),29-nonaen-27-one] | > 5000 | 44 | 3.9 | 3.7 | 2.5 | 3 | 2.6 | 2.3 | 11 | – | – | 1.4 | 0.56 | 5.6 | 0.38 | 1 | 4 | 0.79 | 12 | 1080 | –
Cc1cc2cc(n1)-c1cnn(C)c1OCCN1CC3CCC(CC3)(C1)n1c(nc3ccc(N4CCC5(CN(C)C5)C4)cc31)NC2=O [Example B37] | > 5000 | 194 | 13 | 19 | 9 | 5.6 | 3.9 | 13 | 99 | – | – | 12 | 5 | 73 | 9 | 28 | 74 | 5 | 106 | 5040 | –
Cc1cc2cc(n1)-c1cnn(C)c1OCCN1CC3CCC(C3)(C1)n1c(nc3ccc(N(C)CCCN(C)C)cc31)NC2=O (single isomer, unassigned) [Example B45B] | 1020 | 46 | 3.8 | 5.3 | 2.8 | 1.4 | 1.7 | 2.4 | 14 | 2 | 2 | – | – | – | – | – | – | – | – | 1680 | GI50 [10, 15]: 4 nM; GI50 [10, 16]: 2 nM; GI50 [10, 17]: 2 nM; GI50 [10, 18]: 11 nM; GI50 [10, 19]: 2 nM; GI50 [11]: 10 nM
Cc1cc2cc(n1)-c1cnn(C)c1OCCN1CC3CCC(CC3)(C1)n1c(nc3ccc(N4CCN(C(C)C)CC4)cc31)NC2=O [Example B39] | > 5000 | 282 | 7.7 | 20 | 6.6 | 4.2 | 3.3 | 9.4 | 126 | – | – | 24 | 8 | 101 | 4 | 18 | 167 | 7 | 178 | 7730 | –
Cc1cc2cc(n1)-c1cnn(C)c1OCCN1CC3CCC(CC3)(C1)n1c(nc3ccc(N4CCC5(CC4)CCN5C)cc31)NC2=O [Example B30] | > 5000 | 110 | 11 | 17 | 12 | 5.6 | 4.9 | 8.7 | 64 | – | – | 3 | 2 | 35 | 4 | 9 | 22 | 2 | 33 | 3560 | –
